“And” between values parts separate entries of the source, which are not always exact repeats. Equal values may be shown once. Read-outs that look alike come from different tables or passages of the source.

Consider seven molecules from patent US20140030201A1, “A SKIN LIGHTENING COMPOSITION” (priority 2010, published 2014).

Series [1] has as its system B16 mouse melanoma cells. Put plainly: Melanogenesis in B16 monolayer cultures (melanin normalised to total protein). The format is cell-based. Conditions: for Normalised melanin: 72 hours; for Inhibition of melanin production (in words): B16 monolayer cultures. As for the experimental part: B16 mouse melanoma cells were cultured in Eagle's minimal essential medium (EMEM) supplemented with 10% foetal calf serum (FCS) and 2 mM L-glutamine at 37° C., 5% CO2 in T175 tissue culture flasks and were sub-cultured twice weekly using trypsin in EDTA. For assay, 25 000 cells per well in 500 μl volume were seeded to a 48 well plate and adhered overnight. The following morning standard culture media was replaced by EMEM, 10% FCS, 4 mM L-glutamine (500 μl) and test actives added. Cells were then incubated for 72 hours. At 72 after which the supernatants were removed and analysed for melanin content by spectrophometry at 450 nm against a reference standard curve. The B16 cell monolayer was dissolved in Triton™/PBS at 4° C. for 20 minutes, centrifuged at 13 000 rpm for 5 minutes at 4° C. and analysed for total protein content using a standard bicinchoninic acid assay (BCA) assay against a reference standard curve. Melanin results were normalised to total protein.
Each test active was applied in DMSO to n=3 cultures.

In series [2] the test system is B16 melanoma cells. The settings on record: cited from earlier work.
For series [3], the system named is B16 F10 cells (mouse melanoma cell line). The settings on record: 3 days; for Average μg melanin/cell (4 tests): media control 0.00030445, DMSO control 0.00028774; for % vehicle control (melanin per cell): media control 100, DMSO control 94.51056836. As for the experimental part: B16 F10 cells (mouse melanoma cell line) were obtained from ATCC and grown in Lonza Biowhittaker BE12-662F media. Trypsin in ethylenediaminetetraacetic acid (EDTA) (Sigma T3924) and Dulbecco's Phosphate Buffered Saline (DPBS) (Sigma D8537) were used to split the cells. Plates were set up at a concentration of 2.5×10^4 cells per well in 48 well plates in Phenol Red free media (Sigma D1145).
After overnight incubation, media was removed and media with sulforaphane (available from Sigma-Aldrich Company Limited as at least 95% L-sulforaphane) in DMSO and ketoconazole in DMSO solutions were added. 500 μl of the media and solutions were added to 4 wells of a 48 well plate and the plates incubated at 37° C. for a further 3 days. Thereafter the melanin concentration and cell numbers were measured.
Melanin concentration was measured by making up standards each day and pipetting 100 μl of each standard in duplicate onto Greiner plates. For the blank plate Phenol Red free media was used. 100 μl from each well was also pipetted in duplicate onto Greiner plates and the plates read on a Dynex plate reader at 450 nm.
Cell numbers were measured by washing the wells twice with phosphated buffer solution (PBS). Then 1 ml of trypsin EDTA diluted in PBS at 1:10 v/v was added to each well and the wells observed for cell detachment. All media from each well was then collected the media assayed by adding 100 μl of the media to 9.9 ml of Coulter Isoton II diluent. Cell numbers were assessed using the Z1 Coulter Particle Counter.

Series [4] can be described thus: In-vitro delivery of ketoconazole into human skin (diffusion cells, tape stripping). The format is in vitro ADME. As for the experimental part: This study quantified the in-vitro human skin penetration after application of a cream formulation containing 2% (w/w) ketoconazole (Daktarin™ Gold). Eight diffusion cells were prepared (using female abdominal skin from three donors) plus three undosed control cells (for assay validation purposes). Epidermal membranes were used and integrity assessed by measuring electrical resistance. Permeation of active was measured over 24 hours following application of a target 5 mg/cm2 dose. Suitable liquid chromatography analytical assays were developed, with active peaks separated from formulation, skin and tape strip derived peaks.
Distribution within the skin at 24 hours was determined by measuring the levels of active within the stratum corneum (tape strips) and the epidermis plus any remaining lower stratum corneum (following tape stripping). The skin was wiped prior to tape stripping to remove active remaining at the surface. Levels in the donor chamber sealing grease and on the donor chambers were also measured (donor chamber wash).

Series [5] has as its system normal human melanocytes (NHM). Put plainly: Growth and morphology of normal human melanocytes in monolayer culture (light microscopy). The format is cell-based. Conditions: 1 μM. As for the experimental part: Primary human melanocytes were obtained from Invitrogen Cascade Biologics (HEMn-DP) and grown in Cascade melanocyte media (M-254CF-500+human melanocyte growth supplement (HMGS) supplement containing phorbol myristate acetate (PMA)) according to the manufacturer's instructions. Once established, cultures were routinely grown in T175 tissue culture flasks and could generally be passaged for use up to six (P6) or seven (P7) times. Once the cells reached about 70% confluence they were treated with trypsin, spun down and re-suspended in an appropriate volume of media ready for plating out. Cells seeded at 2×10^5 cells per well in a 6-well plate and incubated in 2 ml medium per well. Cells were allowed 16 hours to settle on the cover-slips before addition of treatments. Cells were treated for 5 days with DMSO vehicle or test actives dissolved in DMSO and light microscope images captured.
NHMs grown in monolayer cultures were treated with 1 μM ketoconazole for 5 days and assessed by light microscopy.

Series [6] deals with MelanoDerm™ cultures (pigmented 3D-Living Skin Equivalent model). Put plainly: Melanogenesis in MelanoDerm cultures (extracted melanin normalised to protein).
Series [7] concerns MelanoDerm™ cultures. Nature of the series: Histological analysis of MelanoDerm cultures (Masson-Fontana staining, MART-1 immuno-staining). The settings on record: 1 μM, 14 days, versus DMSO control.
Setting [8] is: 20 μM, individual cultures, second DMSO control 0.187, 0.188, 0.172.
Setting [9] is: cream with 2% (w/w) ketoconazole (Daktarin Gold), 5 mg/cm2, 24 hours, n = 8.
The mark [10] stands for this setting: stratum corneum tape strips, cream with 2% (w/w) ketoconazole, 5 mg/cm2, 24 hours, n = 8.

Take `OC(Cn1cncn1)(Cn1cncn1)c1ccc(F)cc1F` [flucoazole, fluconazole]: the Normalised melanin in series [1] (setting [8]) was 0.232 μg/mg protein and 0.214 μg/mg protein and 0.229 μg/mg protein. The “Inhibition of melanin production (in words)” value (“Inhibition” below) in series [1] (other azoles) is listed as “did not effectively inhibit melanin production”.
Take `Clc1ccc(COC(Cn2ccnc2)c2ccc(Cl)cc2Cl)c(Cl)c1` (centres unmarked) [miconazole]: in series [2] (accompanying the melanin decrease), the Cellular viability result is “decreased cellular viability”. Besides, in series [2] (compared with untreated cells), the Melanin content result is recorded as “dose dependently decreased” and the Tyrosinase activity entry is on record as “dose dependently decreased”.
`C[S+]([O-])CCCCN=C=S` [L-sulforaphane, sulforaphane]: in series [3] (10 μM), the “Average μg melanin/cell (4 tests)” value is recorded as 0.0002645 μg melanin/cell and the “% vehicle control (melanin per cell)” value came out at 86.89 % vehicle control.
On to `CC(=O)N1CCN(c2ccc(OC[C@H]3CO[C@](Cn4ccnc4)(c4ccc(Cl)cc4Cl)O3)cc2)CC1` (racemic) [ketoconazole], for which, in series [4] (setting [9]), the “Ketoconazole (% recovered), Donor chamber” value is on record as 4.00 ± 1.26 % recovered; the “Ketoconazole (% recovered), Overall recovery” value was determined as 99.4 ± 1.2 % recovered; the “Ketoconazole (% recovered), Permeation chamber” value is on record as 3.49 ± 0.26 % recovered; the “Ketoconazole (% recovered), Surface of skin” value was found to be 83.6 ± 2.4 % recovered. The “Delivery into human skin (in words)” value in series [4] (cream with 2% (w/w) ketoconazole, 24 hours) was “low but adequate delivery into human skin”. Besides, the “Ketoconazole (% recovered), Epidermis” value in series [4] (includes any stratum corneum remaining after tape stripping, cream with 2% (w/w) ketoconazole, 5 mg/cm2, 24 hours, n = 8) is reported as 2.02 ± 0.74 % recovered. The “Ketoconazole (% recovered), Strip 1” value in series [4] (stratum corneum tape strip, cream with 2% (w/w) ketoconazole, 5 mg/cm2, 24 hours, n = 8) is recorded as 4.92 ± 2.03 % recovered. In series [4] (setting [10]), the “Ketoconazole (% recovered), Strips 2-3” value amounted to 0.858 ± 0.255 % recovered; the “Ketoconazole (% recovered), Strips 4-6” value is 0.318 ± 0.062 % recovered; the “Ketoconazole (% recovered), Strips 7-10” value is 0.192 ± 0.046 % recovered. Besides, in series [3] (1 μM), the “Average μg melanin/cell (4 tests)” value was 0.0002916 μg melanin/cell and the “% vehicle control (melanin per cell)” value stood at 95.76 % vehicle control. Further, the “Effect on viability of monolayer human melanocytes” value in series [5] was “no detectable effect on the viability”. Also, the “Effect on NHM morphology or proliferation” value in series [5] (5 days, light microscopy, FIG. 3) is given as “no evidence that treatment had an adverse effect on NHM morphology or proliferation”. Moreover, the “Proportion of bipolar cells (normal cells)” value in series [5] (5 days, versus control, FIG. 3) was “practically identical to the control”. Besides, the “Effect on viability of epidermal cultures” value in series [6] (1 μM) is “no detectable effect on the viability”. Further, the Normalised melanin in series [6] (1 μM, 14 days, individual cultures, DMSO control 74.560, 103.845, 90.333) was 58.573 μg/mg protein and 59.276 μg/mg protein and 57.292 μg/mg protein. Further, the “Levels of extractable melanin (in words)” value in series [6] (1 μM, 14 days, versus DMSO control) is listed as “consistently reduced the levels of extractable melanin”. Moreover, the “Inhibition” value in series [6] (MelanoDerm cultures, at 1 μM) is reported as “very effectively inhibits melanin production”. Besides, in series [7] (FIG. 1), the “Melanin content of the basal melanocytes, Masson-Fontana staining” value was “marked effect on the melanin content of the basal melanocytes”. Also, the “Presence of melanocytes, MART-1 immuno-staining” value in series [7] (FIG. 2) is “not due to the elimination of melanocytes”. This molecule also showed a Normalised melanin in series [1] (5 μM, n=3 cultures, first DMSO control 0.186 ± 0.021) of 0.173 ± 0.032 μg/mg protein. In series [1] (20 μM, n=3 cultures, first DMSO control 0.186 ± 0.021), the Normalised melanin is on record as 0.004 ± 0.001 μg/mg protein. For the same molecule, the Normalised melanin in series [1] (50 μM, n=3 cultures, first DMSO control 0.186 ± 0.021) amounted to 0.007 ± 0.003 μg/mg protein. Further, the “Inhibition” value in series [1] (at 1 μM as printed) is “very effectively inhibits melanin production”.
As for `c1cocn1` [oxazole], the Normalised melanin in series [1] (setting [8]) was 0.217 μg/mg protein and 0.210 μg/mg protein and 0.185 μg/mg protein. The “Inhibition” value in series [1] (other azoles) is recorded as “did not effectively inhibit melanin production”.
Regarding `c1cscn1` [thiazole], the Normalised melanin in series [1] (setting [8]) was 0.228 μg/mg protein and 0.255 μg/mg protein and 0.236 μg/mg protein. In addition, the “Inhibition” value in series [1] (other azoles) is listed as “did not effectively inhibit melanin production”.
In the case of `c1c[nH]cn1` [imidazole], in series [1] (setting [8]), the Normalised melanin is 0.180 μg/mg protein and 0.231 μg/mg protein and 0.240 μg/mg protein. Moreover, the “Inhibition” value in series [1] (other azoles) is “did not effectively inhibit melanin production”.
